Assay results reported in patent US20200368247A1, “CENICRIVIROC FOR THE TREATMENT OF FIBROSIS” (Tobira Therapeutics, Inc., priority 2014, published 2020).

How the values were obtained:
[1] = Study 202 biomarkers of inflammation; type: in vivo, human
Experimental: As an exploratory analysis, levels of inflammation biomarkers MCP-1, sCD14, high sensitivity C-reactive protein [hs-CRP], interleukin-6 [IL-6], D-dimer, and fibrinogen) were measured. Baseline values and changes from baseline at Week 24 and Week 48 of MCP-1, sCD14, hs-CRP, IL-6, D-dimer, and fibrinogen are summarized in Table 25.
The sCD14 samples were originally analyzed in 2 separate batches: Batch 1 included samples leading up to the Week 24 primary analysis and Batch 2 included Week 32 and Week 48 (end of study) samples. A repeat analysis of archived samples all analyzed in one batch was conducted for consistency in analysis across time points. To control for the effects of covariates, a linear mixed-model repeated-measures analysis was conducted on the changes from baseline in sCD14 (analysis dated September 2013).

[2] = tested on: HIV-1; test: Study 202 Phase 2b, virologic response (HIV-1 RNA <50 copies/mL, FDA Snapshot), with FTC/TDF; conditions: for subjects with virologic success (HIV-1 RNA <50 copies/mL): EFV
Description: Subjects with a history of HIV-2, hepatitis B and/or C, cirrhosis of the liver or any known active or chronic active liver disease were excluded from the study.
The primary efficacy endpoint was virologic response at Week 24, defined as HIV-1 RNA <50 copies/mL using the FDA Snapshot Algorithm.

[3] = Study 202 treatment-emergent laboratory abnormalities (DAIDS grade); type: in vivo, human
Description: The 12th subject (Subject 42001) had 2 consecutive CPK elevations (Grade 3 followed by Grade 4) that returned to normal values while continuing treatment at a subsequent visit. None of the CPK elevations were associated with clinical symptoms; no subjects discontinued due to CPK elevations and there were no differences in AEs related to musculoskeletal disorders between the CVC and EFV arms.
The number of subjects with graded treatment-emergent laboratory abnormalities in selected liver parameters of interest is shown in Table 34. No Grade 4 ALT or AST elevations were observed. Except for one Grade 3 AST elevation, all ALT and AST elevations were Grade 1 or Grade 2. […] All abnormalities in bilirubin were Grade 1 or Grade 2. […]

[4] = All CVC (N = 115), EFV (N = 28)
[5] = All CVC (N = 115), EFV (N = 28), through Week 48

## O=C1Nc2ccc(Cl)cc2[C@@](C#CC2CC2)(C(F)(F)F)O1 [EFV, efavirenz, reference compound]
[1]; EFV 600 mg
  sCD14 Baseline value, Mean: 2e+06 pg/mL
  sCD14 change from baseline at Week 12, Mean: 90000 pg/mL
  sCD14 change from baseline at Week 12, Median: 180000 pg/mL
  sCD14 change from baseline at Week 24, Mean: 230000 pg/mL
  sCD14 change from baseline at Week 24, Median: 130000 pg/mL
  sCD14 change from baseline at Week 32, Mean: 480000 pg/mL
  sCD14 change from baseline at Week 32, Median: 170000 pg/mL
  sCD14 change from baseline at Week 48, Mean: 640000 pg/mL
  sCD14 change from baseline at Week 48, Median: 460000 pg/mL
[1]; Study 202, up to Week 48
  plasma MCP-1 over time: remained at baseline values
[2]; EFV arm
  subjects who prematurely discontinued the study: 39%
[2]; Week 24
  subjects with virologic success (HIV-1 RNA <50 copies/mL): 71%
[2]; Week 48
  subjects with virologic success (HIV-1 RNA <50 copies/mL): 50%
[3]; [4]
  ALT abnormality, worst Grade 1: 2 (7%) n (%)
  ALT abnormality, worst Grade 2: 0 n (%)
  ALT abnormality, worst Grade 3: 0 n (%)
  ALT abnormality, worst Grade 4: 0 n (%)
  AST abnormality, worst Grade 1: 3 (11%) n (%)
  AST abnormality, worst Grade 2: 0 n (%)
  AST abnormality, worst Grade 3: 0 n (%)
  AST abnormality, worst Grade 4: 0 n (%)
  Alanine aminotransferase (ALT) abnormality, any worst grade: 2 (7%) n (%)
  Aspartate aminotransferase (AST) abnormality, any worst grade: 3 (11%) n (%)
  Bilirubin abnormality, any worst grade: 1 (4%) n (%)
  Bilirubin abnormality, worst Grade 1: 1 (4%) n (%)
  Bilirubin abnormality, worst Grade 2: 0 n (%)
  Bilirubin abnormality, worst Grade 3: 0 n (%)
  Bilirubin abnormality, worst Grade 4: 0 n (%)
[3]; [5]
  AST increased, Grade 3: 0 n (%)
  AST increased, Grade 4: 0 n (%)
  Any Grade 3 laboratory abnormality: 3 (11%) n (%)
  Any Grade 3 or Grade 4 laboratory abnormality: 4 (14%) n (%)
  Any Grade 4 laboratory abnormality: 1 (4%) n (%)
  Aspartate aminotransferase (AST) increased (Grade 3 or 4): 0 n (%)
  CPK increased, Grade 3: 2 (7%) n (%)
  CPK increased, Grade 4: 0 n (%)
  Creatine phosphokinase (CPK) increased (Grade 3 or 4): 2 (7%) n (%)
  Fibrinogen decreased (Grade 3 or 4): 0 n (%)
  Fibrinogen decreased, Grade 3: 0 n (%)
  Fibrinogen decreased, Grade 4: 0 n (%)
  Hemoglobin decreased (Grade 3 or 4): 0 n (%)
  Hemoglobin decreased, Grade 3: 0 n (%)
  Hemoglobin decreased, Grade 4: 0 n (%)
  Neutrophils decreased (Grade 3 or 4): 1 (4%) n (%)
  Neutrophils decreased, Grade 3: 0 n (%)
  Neutrophils decreased, Grade 4: 1 (4%) n (%)
  Phosphate decreased (Grade 3 or 4): 1 (4%) n (%)
  Phosphate decreased, Grade 3: 1 (4%) n (%)
  Phosphate decreased, Grade 4: 0 n (%)
  Prothrombin time/international normalized ratio increased (Grade 3 or 4): 0 n (%)
  Prothrombin time/international normalized ratio increased, Grade 3: 0 n (%)
  Prothrombin time/international normalized ratio increased, Grade 4: 0 n (%)
[3]; EFV
  Any graded (Grade 1-4) laboratory abnormality, %: 89%
  Worst Grade 1 laboratory abnormality, %: 46%
  Worst Grade 2 laboratory abnormality, %: 29%
  Worst Grade 3 laboratory abnormality, %: 11%
  Worst Grade 4 laboratory abnormality, %: 4%
